Data from ChEMBL document CHEMBL4765227, “Hit to lead optimization of a series of N-[4-(1,3-benzothiazol-2-yl)phenyl]acetamides as monoacylglycerol lipase inhibitors with potential anticancer activity” (Eur J Med Chem, 2016).

Legend:
Assay type in all cases: functional
CCRF-CEM = test: Growth inhibition of human CCRF-CEM cells incubated for 48 hrs by sulforhodamine B assay
EKVX = test: Growth inhibition of human EKVX cells incubated for 48 hrs by sulforhodamine B assay
HCT-116 = test: Growth inhibition of human HCT-116 cells incubated for 48 hrs by sulforhodamine B assay; conditions: for CC50: read-out: LC50 (the source's name)
SNB-19 = test: Growth inhibition of human SNB-19 cells incubated for 48 hrs by sulforhodamine B assay
SK-MEL-5 = test: Growth inhibition of human SK-MEL-5 cells incubated for 48 hrs by sulforhodamine B assay
PC-3 = test: Growth inhibition of human PC-3 cells incubated for 48 hrs by sulforhodamine B assay; conditions: for CC50: read-out: LC50 (the source's name)

SMILES | GI50 (CCRF-CEM) | TGI (CCRF-CEM) | CC50 (CCRF-CEM; read-out: LC50 (the source's name)) | GI50 (EKVX) | LC50 (EKVX) | TGI (EKVX) | GI50 (HCT-116) | TGI (HCT-116) | CC50 (HCT-116) | GI50 (SNB-19) | LC50 (SNB-19) | TGI (SNB-19) | GI50 (SK-MEL-5) | LC50 (50% lethal concentration) (SK-MEL-5) | TGI (SK-MEL-5) | GI50 (PC-3) | TGI (PC-3) | CC50 (PC-3)
O=C(CNc1c(Cl)cccc1Cl)Nc1ccc(-c2nc3ccccc3s2)cc1 | 0.657 µM | 2.97 µM | 45.9 µM | 8.29 µM | 55.2 µM | 22.6 µM | 2.14 µM | 6.14 µM | 29 µM | 2.5 µM | 80 µM | 9.28 µM | 1.43 µM | 5.88 µM | 2.9 µM | 1.73 µM | 3.47 µM | 6.98 µM
O=C(CNc1ccc(Cl)cc1)Nc1ccc(-c2nc3ccccc3s2)cc1 |  |  |  | 4.36 µM | 66.9 µM | 19.1 µM | 1.84 µM | 3.91 µM | 8.3 µM | 2.81 µM | 57.9 µM | 10.2 µM | 1.57 µM | 6.53 µM | 3.2 µM | 2.01 µM | 5.13 µM | 17.9 µM
